Results published in ChEMBL document CHEMBL4138146, “A Schmidt rearrangement-mediated synthesis of novel tetrahydro-benzo[1,4]diazepin-5-ones as potential anticancer and antiprotozoal agents” (Eur J Med Chem, 2017).

What follows are molecules tested on CCRF-CEM (assay: Growth inhibition of human CCRF-CEM cells assessed as cell growth at 10 uM incubated for 48 hrs by sulforhodamine B assay relative to control). Conditions: read-out: Activity.
Assay type: functional
In the case of `O=C1NCC(c2cc3ccc4ccccc4c3[nH]c2=O)Nc2ccccc21` (stereo not drawn), the growth at 10 µM is reported as 81.5%.

These molecules were tested on A549 (assay: Growth inhibition of human A549/ATCC cells assessed as cell growth at 10 uM incubated for 48 hrs by sulforhodamine B assay relative to control). Conditions: A549, 48 h, read-out: Activity.
Assay type: functional
Molecule `O=C1NCC(c2cc3ccc4ccccc4c3[nH]c2=O)Nc2ccccc21` (stereo not drawn) has a growth at 10 µM of 82.4%.

The molecules below were run on HOP-62 (assay: Growth inhibition of human HOP62 cells assessed as cell growth at 10 uM incubated for 48 hrs by sulforhodamine B assay relative to control). Conditions: HOP-62, 48 h, read-out: Activity.
Assay type: functional
Molecule `O=C1NCC(c2cc3ccc4ccccc4c3[nH]c2=O)Nc2ccccc21` (stereo not drawn) has a growth at 10 µM of 93.1%.

These molecules were tested on HOP-92 (assay: Growth inhibition of human HOP92 cells assessed as cell growth at 10 uM incubated for 48 hrs by sulforhodamine B assay relative to control). Conditions: HOP-92, 48 h, read-out: Activity.
Assay type: functional
`O=C1NCC(c2cc3ccc4ccccc4c3[nH]c2=O)Nc2ccccc21` (stereo not drawn) was tested, and the growth at 10 µM was 99.5%.

These molecules were tested on NCI-H226 (assay: Growth inhibition of human NCI-H226 cells assessed as cell growth at 10 uM incubated for 48 hrs by sulforhodamine B assay relative to control). Conditions: NCI-H226, 48 h, read-out: Activity.
Assay type: functional
For `O=C1NCC(c2cc3ccc4ccccc4c3[nH]c2=O)Nc2ccccc21` (stereo not drawn), the growth at 10 µM was 103%.

Each molecule was assayed on NCI-H23 (assay: Growth inhibition of human NCI-H23 cells assessed as cell growth at 10 uM incubated for 48 hrs by sulforhodamine B assay relative to control). Conditions: NCI-H23, 48 h, read-out: Activity.
Assay type: functional
Work on `O=C1NCC(c2cc3ccc4ccccc4c3[nH]c2=O)Nc2ccccc21` (stereo not drawn) yielded a growth at 10 µM of 102%.

These molecules were tested on NCI-H322M (assay: Growth inhibition of human NCI-H322M cells assessed as cell growth at 10 uM incubated for 48 hrs by sulforhodamine B assay relative to control). Conditions: read-out: Activity.
Assay type: functional
Work on `O=C1NCC(c2cc3ccc4ccccc4c3[nH]c2=O)Nc2ccccc21` (stereo not drawn) yielded a growth at 10 µM of 111%.

Each molecule was assayed on NCI-H522 (assay: Growth inhibition of human NCI-H522 cells assessed as cell growth at 10 uM incubated for 48 hrs by sulforhodamine B assay relative to control). Conditions: NCI-H522, 48 h, read-out: Activity.
Assay type: functional
`O=C1NCC(c2cc3ccc4ccccc4c3[nH]c2=O)Nc2ccccc21` (stereo not drawn) showed a growth at 10 µM of 90.4%.

The molecules below were run on COLO 205 (assay: Growth inhibition of human COLO205 cells assessed as cell growth at 10 uM incubated for 48 hrs by sulforhodamine B assay relative to control). Conditions: COLO 205, 48 h, read-out: Activity.
Assay type: functional
For `O=C1NCC(c2cc3ccc4ccccc4c3[nH]c2=O)Nc2ccccc21` (stereo not drawn), the growth at 10 µM was 108%.

The molecules below were run on HCT-116 (assay: Growth inhibition of human HCT116 cells assessed as cell growth at 10 uM incubated for 48 hrs by sulforhodamine B assay relative to control). Conditions: HCT-116, 48 h, read-out: Activity.
Assay type: functional
Work on `O=C1NCC(c2cc3ccc4ccccc4c3[nH]c2=O)Nc2ccccc21` (stereo not drawn) yielded a growth at 10 µM of 44.1%.

Each molecule was assayed on HT-29 (assay: Growth inhibition of human HT-29 cells assessed as cell growth at 10 uM incubated for 48 hrs by sulforhodamine B assay relative to control). Conditions: HT-29, 48 h, read-out: Activity.
Assay type: functional
In the case of `O=C1NCC(c2cc3ccc4ccccc4c3[nH]c2=O)Nc2ccccc21` (stereo not drawn), the growth at 10 µM is reported as 95%.

These molecules were tested on KM12 (assay: Growth inhibition of human KM12 cells assessed as cell growth at 10 uM incubated for 48 hrs by sulforhodamine B assay relative to control). Conditions: KM12, 48 h, read-out: Activity.
Assay type: functional
Work on `O=C1NCC(c2cc3ccc4ccccc4c3[nH]c2=O)Nc2ccccc21` (stereo not drawn) yielded a growth at 10 µM of 99.1%.

The molecules below were run on SW-620 (assay: Growth inhibition of human SW620 cells assessed as cell growth at 10 uM incubated for 48 hrs by sulforhodamine B assay relative to control). Conditions: SW-620, 48 h, read-out: Activity.
Assay type: functional
Work on `O=C1NCC(c2cc3ccc4ccccc4c3[nH]c2=O)Nc2ccccc21` (stereo not drawn) yielded a growth at 10 µM of 91.5%.

What follows are molecules tested on SF-539 (assay: Growth inhibition of human SF539 cells assessed as cell growth at 10 uM incubated for 48 hrs by sulforhodamine B assay relative to control). Conditions: SF-539, 48 h, read-out: Activity.
Assay type: functional
Work on `O=C1NCC(c2cc3ccc4ccccc4c3[nH]c2=O)Nc2ccccc21` (stereo not drawn) yielded a growth at 10 µM of 99.8%.

What follows are molecules tested on SNB-19 (assay: Growth inhibition of human SNB19 cells assessed as cell growth at 10 uM incubated for 48 hrs by sulforhodamine B assay relative to control). Conditions: SNB-19, 48 h, read-out: Activity.
Assay type: functional
With `O=C1NCC(c2cc3ccc4ccccc4c3[nH]c2=O)Nc2ccccc21` (stereo not drawn) the growth at 10 µM was 89.2%.

Each molecule was assayed on U-251 (assay: Growth inhibition of human U251 cells assessed as cell growth at 10 uM incubated for 48 hrs by sulforhodamine B assay relative to control). Conditions: U-251, 48 h, read-out: Activity.
Assay type: functional
Work on `O=C1NCC(c2cc3ccc4ccccc4c3[nH]c2=O)Nc2ccccc21` (stereo not drawn) yielded a growth at 10 µM of 102%.

These molecules were tested on Malme-3M (assay: Growth inhibition of human MALME-3M cells assessed as cell growth at 10 uM incubated for 48 hrs by sulforhodamine B assay relative to control). Conditions: read-out: Activity.
Assay type: functional
`O=C1NCC(c2cc3ccc4ccccc4c3[nH]c2=O)Nc2ccccc21` (stereo not drawn) gave a growth at 10 µM of 96.9%.

These molecules were tested on SK-MEL-28 (assay: Growth inhibition of human SK-MEL-28 cells assessed as cell growth at 10 uM incubated for 48 hrs by sulforhodamine B assay relative to control). Conditions: SK-MEL-28, 48 h, read-out: Activity.
Assay type: functional
For `O=C1NCC(c2cc3ccc4ccccc4c3[nH]c2=O)Nc2ccccc21` (stereo not drawn), the growth at 10 µM was 104%.

Each molecule was assayed on UACC-62 (assay: Growth inhibition of human UACC62 cells assessed as cell growth at 10 uM incubated for 48 hrs by sulforhodamine B assay relative to control). Conditions: UACC-62, 48 h, read-out: Activity.
Assay type: functional
`O=C1NCC(c2cc3ccc4ccccc4c3[nH]c2=O)Nc2ccccc21` (stereo not drawn) showed a growth at 10 µM of 95.2%.

Each molecule was assayed on OVCAR-3 (assay: Growth inhibition of human OVCAR3 cells assessed as cell growth at 10 uM incubated for 48 hrs by sulforhodamine B assay relative to control). Conditions: OVCAR-3, 48 h, read-out: Activity.
Assay type: functional
For `O=C1NCC(c2cc3ccc4ccccc4c3[nH]c2=O)Nc2ccccc21` (stereo not drawn), the growth at 10 µM was 107%.

These molecules were tested on OVCAR-4 (assay: Growth inhibition of human OVCAR4 cells assessed as cell growth at 10 uM incubated for 48 hrs by sulforhodamine B assay relative to control). Conditions: OVCAR-4, 48 h, read-out: Activity.
Assay type: functional
`O=C1NCC(c2cc3ccc4ccccc4c3[nH]c2=O)Nc2ccccc21` (stereo not drawn) showed a growth at 10 µM of 106%.

Each molecule was assayed on OVCAR-5 (assay: Growth inhibition of human OVCAR5 cells assessed as cell growth at 10 uM incubated for 48 hrs by sulforhodamine B assay relative to control). Conditions: OVCAR-5, 48 h, read-out: Activity.
Assay type: functional
Molecule `O=C1NCC(c2cc3ccc4ccccc4c3[nH]c2=O)Nc2ccccc21` (stereo not drawn) has a growth at 10 µM of 101%.

These molecules were tested on OVCAR-8 (assay: Growth inhibition of human OVCAR8 cells assessed as cell growth at 10 uM incubated for 48 hrs by sulforhodamine B assay relative to control). Conditions: OVCAR-8, 48 h, read-out: Activity.
Assay type: functional
`O=C1NCC(c2cc3ccc4ccccc4c3[nH]c2=O)Nc2ccccc21` (stereo not drawn) was tested, and the growth at 10 µM was 78%.

These molecules were tested on NCI/ADR-RES (assay: Growth inhibition of human NCI/ADR-RES cells assessed as cell growth at 10 uM incubated for 48 hrs by sulforhodamine B assay relative to control). Conditions: read-out: Activity.
Assay type: functional
`O=C1NCC(c2cc3ccc4ccccc4c3[nH]c2=O)Nc2ccccc21` (stereo not drawn) gave a growth at 10 µM of 99%.

Each molecule was assayed on SK-OV-3 (assay: Growth inhibition of human SKOV3 cells assessed as cell growth at 10 uM incubated for 48 hrs by sulforhodamine B assay relative to control). Conditions: SK-OV-3, 48 h, read-out: Activity.
Assay type: functional
In the case of `O=C1NCC(c2cc3ccc4ccccc4c3[nH]c2=O)Nc2ccccc21` (stereo not drawn), the growth at 10 µM is reported as 99.9%.

These molecules were tested on A498 (assay: Growth inhibition of human A498 cells assessed as cell growth at 10 uM incubated for 48 hrs by sulforhodamine B assay relative to control). Conditions: A498, 48 h, read-out: Activity.
Assay type: functional
For `O=C1NCC(c2cc3ccc4ccccc4c3[nH]c2=O)Nc2ccccc21` (stereo not drawn), the growth at 10 µM was 88.6%.

Each molecule was assayed on ACHN (assay: Growth inhibition of human ACHN cells assessed as cell growth at 10 uM incubated for 48 hrs by sulforhodamine B assay relative to control). Conditions: read-out: Activity.
Assay type: functional
With `O=C1NCC(c2cc3ccc4ccccc4c3[nH]c2=O)Nc2ccccc21` (stereo not drawn) the growth at 10 µM was 109%.

These molecules were tested on RXF 393 (assay: Growth inhibition of human RXF393 cells assessed as cell growth at 10 uM incubated for 48 hrs by sulforhodamine B assay relative to control). Conditions: RXF 393, 48 h, read-out: Activity.
Assay type: functional
`O=C1NCC(c2cc3ccc4ccccc4c3[nH]c2=O)Nc2ccccc21` (stereo not drawn) showed a growth at 10 µM of 101%.

What follows are molecules tested on SN12C (assay: Growth inhibition of human SN12C cells assessed as cell growth at 10 uM incubated for 48 hrs by sulforhodamine B assay relative to control). Conditions: read-out: Activity.
Assay type: functional
`O=C1NCC(c2cc3ccc4ccccc4c3[nH]c2=O)Nc2ccccc21` (stereo not drawn) showed a growth at 10 µM of 79.3%.

Each molecule was assayed on TK-10 (assay: Growth inhibition of human TK10 cells assessed as cell growth at 10 uM incubated for 48 hrs by sulforhodamine B assay relative to control). Conditions: TK-10, 48 h, read-out: Activity.
Assay type: functional
`O=C1NCC(c2cc3ccc4ccccc4c3[nH]c2=O)Nc2ccccc21` (stereo not drawn) gave a growth at 10 µM of 107%.

What follows are molecules tested on UO-31 (assay: Growth inhibition of human UO31 cells assessed as cell growth at 10 uM incubated for 48 hrs by sulforhodamine B assay relative to control). Conditions: UO-31, 48 h, read-out: Activity.
Assay type: functional
`O=C1NCC(c2cc3ccc4ccccc4c3[nH]c2=O)Nc2ccccc21` (stereo not drawn) showed a growth at 10 µM of 105%.

Each molecule was assayed on T47D (assay: Growth inhibition of human T47D cells assessed as cell growth at 10 uM incubated for 48 hrs by sulforhodamine B assay relative to control). Conditions: read-out: Activity.
Assay type: functional
`O=C1NCC(c2cc3ccc4ccccc4c3[nH]c2=O)Nc2ccccc21` (stereo not drawn) was tested, and the growth at 10 µM was 85.7%.

The molecules below were run on MDA-MB-468 (assay: Growth inhibition of human MDA-MB-468 cells assessed as cell growth at 10 uM incubated for 48 hrs by sulforhodamine B assay relative to control). Conditions: MDA-MB-468, 48 h, read-out: Activity.
Assay type: functional
Molecule `O=C1NCC(c2cc3ccc4ccccc4c3[nH]c2=O)Nc2ccccc21` (stereo not drawn) has a growth at 10 µM of 116%.
